Structures are written as SMILES.

Assay [1] has as its system Plk1, Cyclin B1 and pHH-3 in HeLa cells. As to the kind of experiment: Western blot of mitotic markers. The format is cell-based, human. The following applies: synchronized HeLa, 50 ng/mL, 16 hrs, control for mitotic arrest. How it is done:
HeLa cells were collected after trypsinization and lysed with RIPA buffer. Equal amount of proteins (30 μg/lane) were loaded, separated by 15% SDS-PAGE. After blocking with blocking buffer for 2 hrs at RT, the membrane was incubated with the following primary antibodies diluted in blocking buffer overnight at 4°C: anti-hPlk1 mouse monoclonal antibody (Cat# P5998; Sigma; 1:3000), anti-CyclinB1 rabbit polyclonal antibody (Cat# SAB4503501; Sigma; 1:2000), anti-pHH3 rabbit monoclonal antibody (Cat# 04-817; Millipore; 1:2000), anti-GAPDH rabbit polyclonal antibody (Cat# P30008; Abmart; 1:2000). The membrane was washed 3 times and then incubated with Horseradish Peroxidase-conjugated secondary antibodies for 1 hr at RT and visualized with ECL system (Millipore). The level of GAPDH was used as the loading control.

In a further assay the target is T1, Plk2 PBD (Homo sapiens, UniProt Q9NYY3).
T1 construct: (326-603 aa), Plk2 (355-685 aa), and Plk3 (335-646 aa); GST (N); made in house; host or cells: E. coli Rosetta BL21(DE3)
T1 sequence (Q9NYY3 355-685): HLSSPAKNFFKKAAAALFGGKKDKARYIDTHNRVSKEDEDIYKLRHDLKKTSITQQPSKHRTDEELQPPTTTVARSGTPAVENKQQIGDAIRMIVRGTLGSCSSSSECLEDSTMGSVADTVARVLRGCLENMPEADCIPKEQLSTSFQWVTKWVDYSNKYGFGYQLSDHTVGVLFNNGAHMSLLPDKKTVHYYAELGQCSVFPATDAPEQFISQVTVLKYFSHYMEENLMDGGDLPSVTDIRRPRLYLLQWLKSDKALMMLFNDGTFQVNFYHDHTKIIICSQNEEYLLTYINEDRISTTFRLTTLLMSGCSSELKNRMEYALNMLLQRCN
Description: Fluorescence polarization assay, Plk2 PBD / FITC-labeled phosphopeptide. The assay is classed as binding. The following applies: FP assay, 1 hr preincubation at RT, read-out: Apparent IC50. The method, then:
FP assay was performed as follow. Briefly, 30 μL Plk1 PBD proteins (400 nM) were incubated with 0.3 μL tested compounds (1 mg/mL) with shaking for 1 hr at room temperature (RT) prior to addition of 30 μL FITC-Poloboxtide (FITC-GPMQSpTPLNG-OH; λex/λem: 485/535 nm; 60 nM) in FP buffer (50 mM Tris-HCl, 10 mM NaCl, 1 mM EDTA pH8.0). Three wells containing 30 μL FITC-Poloboxtide (60 nM) and 30 μL Plk1 PBD (400 nM) were used as negative control (0% inhibition); three wells containing 60 μL FITC-Poloboxtide (30 nM) only were used as positive control (100% inhibition). Fluorescence polarization was analyzed after incubation of FITC-Poloboxtide for 15 min in a 384-well black opaque microplate (Cat# 6007270, PerkinElmer) using Envision Multilabel Reader (PerkinElmer) at 25°C. We calculated the percentage of inhibition for each sample as follows: Inhibition(%)=Negative−Sample/Negative−Positive×100%
We plotted the inhibition values and determined IC50 using GraphPad Prism5.0. Together with the FITC-labeled peptides used for Plk1 PBD as mentioned above, the following peptides were used for specificity assays, FITC-GPMQTSpTPKNG-OH (Plk2 PBD), FITC-GPLATSpTPKNG-OH (Plk3 PBD). As described above for the FP assay, proteins were used at the following final concentrations: Plk1 PBD, 200 nM; Plk2 PBD, 450 nM; Plk3 PBD, 600 nM. All FITC-labeled peptides were chemically synthesized (China Peptides Co., Ltd., Shanghai) and further verified by mass spectrometry, and the purity is more than 95.0%.

The next assay deals with T2, Plk3 PBD (Homo sapiens, UniProt Q9H4B4).
T2 construct: (326-603 aa), Plk2 (355-685 aa), and Plk3 (335-646 aa); GST (N); made in house; host or cells: E. coli Rosetta BL21(DE3)
T2 sequence (Q9H4B4 335-646): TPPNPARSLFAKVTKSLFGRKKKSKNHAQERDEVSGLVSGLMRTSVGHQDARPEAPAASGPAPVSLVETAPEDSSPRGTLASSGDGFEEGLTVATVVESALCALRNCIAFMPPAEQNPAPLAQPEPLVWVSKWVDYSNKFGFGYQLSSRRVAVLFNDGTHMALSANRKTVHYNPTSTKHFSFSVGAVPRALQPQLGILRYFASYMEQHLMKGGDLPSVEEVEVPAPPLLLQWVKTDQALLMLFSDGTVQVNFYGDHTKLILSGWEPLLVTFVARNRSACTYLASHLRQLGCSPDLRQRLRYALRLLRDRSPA
Description: Fluorescence polarization assay, Plk3 PBD / FITC-labeled phosphopeptide. The format is binding. How it is done:
FP assay was performed as follow. […] We calculated the percentage of inhibition for each sample as follows: Inhibition(%)=Negative−Sample/Negative−Positive×100%
We plotted the inhibition values and determined IC50 using GraphPad Prism5.0. Together with the FITC-labeled peptides used for Plk1 PBD as mentioned above, the following peptides were used for specificity assays, FITC-GPMQTSpTPKNG-OH (Plk2 PBD), FITC-GPLATSpTPKNG-OH (Plk3 PBD).

Regarding `COC(=O)Nc1nc2ccc(C(=O)c3cccs3)cc2[nH]1` [Nocodazole, reference compound], the “mitotic markers (Plk1, Cyclin B1, pHH-3) protein levels” value in assay [1] is “increase of protein levels”.

In the case of `CC1=CC(=O)C(C(C)C)=CC1=O` [TQ, Thymoquinone, reference compound], the IC50 at Plk2 PBD was found to be 3.65 ± 0.96 µM; at Plk3 PBD it was 18.9 ± 1.32 µM. Consider `CC1=CC(=O)C(C(C)C)=C/C1=N/OC(=O)c1ccccc1C` [Poloxin, reference compound], for which the IC50 on Plk2 PBD was 15.6 ± 2.26 µM.

(Values after article PMC5352051, “Identification of a novel Polo-like kinase 1 inhibitor that specifically blocks the functions of Polo-Box domain” (Oncotarget, 2016).)
